Data as given in patent US7659270B2, “Hepatitis C virus inhibitors” (Bristol-Myers Squibb Company, priority 2006, dated 2010).
pEC50: −log10 of the molar value.

System: HCV 1b-377-neo replicon cells
Assay: HCV replicon assay (HCV 1b-377-neo replicon cells)
Format: cell-based, Hepatitis C virus genotype 1b
Conditions: Hepatitis C virus, read-out: EC50 range against HCV 1b (Range)
Method: An HCV Replion assay was utilized in the present disclosure, and was prepared, conducted and validated as described in commonly owned PCT/US2006/022197 and in O'Boyle et. al. Antimicrob Agents Chemother. April 2005;49(4): 1346-53.
HCV 1b-377-neo replicon cells were used to test the currently described compound series as well as cells resistant to compound A due to a Y2065H mutation in NS5A (described in application PCT/US2006/022197). The compounds tested were determined to have more than 10-fold less inhibitory activity on cells resistant to compound A than wild-type cells indicating a related mechanism of action between the two compound series. Thus, the compounds of the present disclosure can be effective to inhibit the function of the HCV NS5A protein and are understood to be as effective in combinations as previously described in application PCT/US2006/022197 and commonly owned WO/04014852. Further, the compounds of the present disclosure can be effective against the HCV 1b genotype. It should also be understood that the compounds of the present disclosure can inhibit multiple genotypes of HCV. […] In one embodiment compounds of the present disclosure are active against the 1a, 1b, 2a, 2b, 3a, 4a, and 5a genotypes.

SMILES: COC(=O)N[C@@H](C(=O)N1CCC[C@H]1c1ncc(-c2ccc(-c3ccc(-c4cnc([C@@H]5CCCN5C(=O)[C@@H]5CCCO5)[nH]4)cc3C)cc2)[nH]1)c1ccccc1 [Example 128, methyl ((1R)-2-((2S)-2-(5-(2′-methyl-4′-(2-((2S)-1-((2S)-tetrahydro-2-furanylcarbonyl)-2-pyrrolidinyl)-1H-imidazol-5-yl)-4-biphenylyl)-1H-imidazol-2-yl)-1-pyrrolidinyl)-2-oxo-1-phenylethyl)carbamate]
- pEC50: 9.00 to 11.00

SMILES: COC(=O)N[C@@H](C(=O)N1CCC[C@H]1c1ncc(-c2ccc(-c3ccc(-c4cnc([C@@H]5CCCN5C(=O)[C@H](NC(=O)OC)c5ccccc5)[nH]4)cc3C)nc2)[nH]1)c1ccccc1 [Example 138, methyl((1R)-2-((2S)-2-(5-(6-(4-(2-((2S)-1-((2R)-2-((methoxycarbonyl)amino)-2-phenylacetyl)-2-pyrrolidinyl)-1H-imidazol-5-yl)-2-methylphenyl)-3-pyridinyl)-1H-imidazol-2-yl)-1-pyrrolidinyl)-2-oxo-1-phenylethyl)carbamate]
- pEC50: 9.00 to 11.00

SMILES: Cc1cc(-c2cnc([C@@H]3CCCN3C(=O)[C@@H](c3ccccc3)N(C)C)[nH]2)ccc1-c1ccc(-c2cnc([C@@H]3CCCN3C(=O)[C@@H](c3ccccc3)N(C)C)[nH]2)cc1C [Example 121, (1R,1′R)-2,2′-((2,2′-dimethyl-4,4′-biphenyldiyl)bis(1H-imidazole-5,2-diyl(2S)-2,1-pyrrolidinediyl))bis(N,N-dimethyl-2-oxo-1-phenylethanamine)]
- pEC50: 9.00 to 11.00

SMILES: COC(=O)N[C@@H](C(=O)N(C)[C@@H](C)c1ncc(-c2ccc(-c3ccc(-c4cnc([C@@H]5CCCN5C(=O)[C@@H](c5ccccc5)N(C)C)[nH]4)cc3)cc2)[nH]1)c1ccccc1 [Example 131.1-1, methyl((1R)-2-(((1S)-1-(5-(4′-(2-((2S)-1-((2R)-2-(dimethylamino)-2-phenylacetyl)-2-pyrrolidinyl)-1H-imidazol-5-yl)-4-biphenylyl)-1H-imidazol-2-yl)ethyl)(methyl)amino)-2-oxo-1-phenylethyl)carbamate]
- pEC50: 9.00 to 11.00

SMILES: COC(=O)N[C@@H](C(=O)N[C@@H](C)c1ncc(-c2ccc(-c3ccc(-c4cnc([C@@H]5CCCN5C(=O)[C@H](NC(=O)OC)c5ccccc5)[nH]4)cc3)nc2)[nH]1)c1ccccc1 [Example 152j-22, methyl ((1R)-2-((2S)-2-(5-(4-(5-(2-((1S)-1-(((2R)-2-((methoxycarbonyl)a-mino)-2-phenyl-acetyl)amino)eth-yl)-1H-imidazol-5-yl)-2-pyridinyl)phenyl)-1H-imidazol-2-yl)-1-pyrrolidinyl)-2-oxo-1-phenylethyl)carbamate]
- pEC50: 9.00 to 11.00

SMILES: C[C@@H](c1ncc(-c2ccc(-c3ccc(-c4cnc([C@H](C)N(C)C(=O)[C@@H](c5ccccc5)N5CCCCC5)[nH]4)cc3)cc2)[nH]1)N(C)C(=O)[C@@H](c1ccccc1)N1CCCCC1 [Example 24-18-3, (2R,2′R)-N,N′-(4,4′-biphenyl-diylbis(1H-imidazole-5,2-diyl(1S)-1,1-ethane-diyl))bis(N-meth-yl-2-phenyl-2-(1-piperi-dinyl)acet-amide)]
- pEC50: 9.00 to 11.00

SMILES: COC(=O)N[C@@H](C(=O)N(C)[C@@H](C)c1ncc(-c2ccc(-c3ccc(-c4cnc([C@@H]5CCCN5C(=O)[C@H](NC(=O)OC)c5ccccc5)[nH]4)cc3)cc2)[nH]1)c1ccccc1 [Example 24-18-4, methyl ((1R)-2-((2S)-2-(5-(4′-(2-((1S)-1-(((2R)-2-((methoxy-carbonyl)a-mino)-2-phenyl-acetyl)(meth-yl)ami-no)ethyl)-1H-imidazol-5-yl)-4-bi-phenylyl)-1H-imidazol-2-yl)-1-pyrrolidi-nyl)-2-oxo-1-phenyl-ethyl)carba-mate]
- pEC50: 9.00 to 11.00
